From PMC4688006 (Leukemia & lymphoma, 2015)
Blank lines part the entries; values can stand above or below the molecule they belong to.

How the values were obtained:
patients with AML = settings: cited from earlier work; for CR rates: randomized phase III clinical trials
[1] = Vorinostat serum pharmacokinetics; format: in vivo, human; settings: for AUC(0-inf) / AUC(0-t) / Cmax / half-life: human, oral; for AUC(0-inf): Mean AUCinf (SD); for AUC(0-t): Mean AUCt (SD); for Cmax: Mean Cmax (SD); for half-life: Mean t½ (SD)
[2] = system: patients with AML and/or MDS; settings: cited from earlier work
[3] = Decitabine plasma pharmacokinetics; format: in vivo, human; settings: for AUC(0-inf) / AUC(0-t) / Cmax: intravenous; for AUC(0-inf): Mean AUCinf (SD); for AUC(0-t): Mean AUCt (SD); for Cmax: Mean Cmax (SD)
[4] = Concurrent schedule, 100 mg bid days 1–21, Day 15 (n = 1)
[5] = 100 mg, Concurrent schedule, 100 mg bid days 1–21, Day 4 (n = 3)
[6] = 100 mg, Concurrent schedule, 100 mg bid days 1–21, Day 15 (n = 1)
[7] = 100 mg, Sequential schedule, 100 mg bid days 6–21 (n = 4), day 9 of cycle 1
[8] = 200 mg, Concurrent schedule, 200 mg bid days 1–21, Day 4 (n = 10)
[9] = 200 mg, Concurrent schedule, 200 mg bid days 1–21, Day 15 (n = 7)
[10] = 200 mg, Concurrent schedule, 200 mg tid days 1–14, Day 4 (n = 7)
[11] = 200 mg, Sequential schedule, 200 mg bid days 6–21 (n = 4), day 9 of cycle 1
[12] = 200 mg, Sequential schedule, 200 mg tid days 6–21 (n = 8), day 9 of cycle 1
[13] = Concurrent schedule: decitabine 20 mg/m^2/day (n = 6), Day 1, cycle 1
[14] = Concurrent schedule: decitabine 20 mg/m^2/day (n = 6), Day 5, cycle 1
[15] = Sequential schedule: decitabine 20 mg/m^2/day (n = 3), Day 1, cycle 1
[16] = Sequential schedule: decitabine 20 mg/m^2/day (n = 3), Day 5, cycle 1
[17] = human, 20 mg/m^2/day, Concurrent schedule: decitabine 20 mg/m^2/day (n = 6), Day 1, cycle 1
[18] = human, 20 mg/m^2/day, Concurrent schedule: decitabine 20 mg/m^2/day (n = 6), Day 5, cycle 1
[19] = human, 20 mg/m^2/day, Sequential schedule: decitabine 20 mg/m^2/day (n = 3), Day 1, cycle 1
[20] = human, 20 mg/m^2/day, Sequential schedule: decitabine 20 mg/m^2/day (n = 3), Day 5, cycle 1

Structure (SMILES): Nc1ncn([C@@H]2O[C@H](CO)[C@@H](O)[C@H]2O)c(=O)n1 [azacitidine]
CR rates (patients with AML): 9–18%

Structure (SMILES): O=C(CCCCCCC(=O)Nc1ccccc1)NO [vorinostat, suberoylanilide hydroxamic acid]
Mean CL/F (SD) ([1]; Concurrent schedule, 100 mg bid days 1–21, Day 4 (n = 3)): 4.35 (1.26) L/min | Mean CL/F (SD) [1, 4]: 2.74 L/min | Mean Cmax (SD) [1, 4]: 226.3 ng/mL | Mean CL/F (SD) ([1]; Concurrent schedule, 200 mg bid days 1–21, Day 4 (n = 10)): 4.02 (1.30) L/min | Mean CL/F (SD) ([1]; Concurrent schedule, 200 mg bid days 1–21, Day 15 (n = 7)): 4.70 (2.45) L/min | Mean CL/F (SD) ([1]; Concurrent schedule, 200 mg tid days 1–14, Day 4 (n = 7)): 2.86 (0.81) L/min | Mean CL/F (SD) ([1]; Sequential schedule, 100 mg bid days 6–21 (n = 4), day 9 of cycle 1): 4.80 (0.79) L/min | Mean CL/F (SD) ([1]; Sequential schedule, 200 mg bid days 6–21 (n = 4), day 9 of cycle 1): 5.57 (5.26) L/min | Mean CL/F (SD) ([1]; Sequential schedule, 200 mg tid days 6–21 (n = 8), day 9 of cycle 1): 5.89 (4.48) L/min | AUC(0-inf) [1, 5]: 407 ng·h/mL | AUC(0-inf) [1, 6]: 609 ng·h/mL | AUC(0-inf) [1, 7]: 352 ng·h/mL | AUC(0-t) [1, 5]: 400 ng·h/mL | AUC(0-t) [1, 6]: 608 ng·h/mL | AUC(0-t) [1, 7]: 276 ng·h/mL | Cmax [1, 5]: 151 ng/mL | Cmax [1, 7]: 117 ng/mL | half-life [1, 5]: 1.04 h | half-life [1, 6]: 0.62 h | AUC(0-inf) [1, 8]: 930 ng·h/mL | AUC(0-inf) [1, 9]: 1010 ng·h/mL | AUC(0-inf) [1, 10]: 1240 ng·h/mL | AUC(0-inf) [1, 11]: 974 ng·h/mL | AUC(0-inf) [1, 12]: 910 ng·h/mL | AUC(0-t) [1, 8]: 734 ng·h/mL | AUC(0-t) [1, 9]: 778 ng·h/mL | AUC(0-t) [1, 10]: 1060 ng·h/mL | AUC(0-t) [1, 11]: 556 ng·h/mL | AUC(0-t) [1, 12]: 743 ng·h/mL | Cmax [1, 8]: 252 ng/mL | Cmax [1, 9]: 246 ng/mL | Cmax [1, 10]: 353 ng/mL | Cmax [1, 11]: 126 ng/mL | Cmax [1, 12]: 263 ng/mL | half-life [1, 9]: 2.34 h | half-life [1, 10]: 2.68 h | half-life [1, 11]: 3.34 h | half-life [1, 12]: 1.65 h | MTD ([2]; for 14 consecutive days every 21 days): 200 mg bid or 250 mg tid | responses (CR and/or CRi) ([2]; single agent): 4.5–10%

Mean CL (SD) [3, 13]: 202.8 (153.7) L/h/m^2 | Mean t^1/2 (SD) [3, 13]: 0.36 (0.12) h | Mean CL (SD) [3, 14]: 139.6 (55.1) L/h/m^2 | Mean t^1/2 (SD) [3, 14]: 0.40 (0.17) h | Mean CL (SD) [3, 15]: 254.8 (134.3) L/h/m^2 | Mean t^1/2 (SD) [3, 15]: 0.36 (0.05) h | Mean CL (SD) [3, 16]: 226.2 (121.6) L/h/m^2 | Mean Cmax (SD) [3, 16]: 129.9 (87.1) ng/mL | Mean t^1/2 (SD) [3, 16]: 0.42 (0.18) h | AUC(0-inf) [3, 17]: 152 ng·h/mL | AUC(0-inf) [3, 18]: 170 ng·h/mL | AUC(0-inf) [3, 19]: 105 ng·h/mL | AUC(0-inf) [3, 20]: 111 ng·h/mL | AUC(0-t) [3, 17]: 149 ng·h/mL | AUC(0-t) [3, 18]: 166 ng·h/mL | AUC(0-t) [3, 19]: 102 ng·h/mL | AUC(0-t) [3, 20]: 107 ng·h/mL | Cmax [3, 17]: 193 ng/mL | Cmax [3, 18]: 236 ng/mL | Cmax [3, 19]: 137 ng/mL | half-life ([3]; human, iv, 20 mg/m^2/day): ~0.333 h
Structure (SMILES): Nc1ncn([C@H]2C[C@H](O)[C@@H](CO)O2)c(=O)n1 [decitabine, 5-aza-2’-deoxycytidine]
CR rates (patients with AML): 9–18% | overall response rates (ORRs) (patients with AML; single agent, three multicenter trials (two phase II, one phase III)): 25–30% | complete response [CR] rate (patients with AML; single agent, three multicenter trials): 13–25%
